# Biological target: T1, human RIPK1 (1-375) (Homo sapiens, UniProt Q13546)
# T1 construct: human RIPK1 (1-375) gene; GST; made in house; host or cells: Sf-9 insect cells
# T1 sequence (Q13546 1-375): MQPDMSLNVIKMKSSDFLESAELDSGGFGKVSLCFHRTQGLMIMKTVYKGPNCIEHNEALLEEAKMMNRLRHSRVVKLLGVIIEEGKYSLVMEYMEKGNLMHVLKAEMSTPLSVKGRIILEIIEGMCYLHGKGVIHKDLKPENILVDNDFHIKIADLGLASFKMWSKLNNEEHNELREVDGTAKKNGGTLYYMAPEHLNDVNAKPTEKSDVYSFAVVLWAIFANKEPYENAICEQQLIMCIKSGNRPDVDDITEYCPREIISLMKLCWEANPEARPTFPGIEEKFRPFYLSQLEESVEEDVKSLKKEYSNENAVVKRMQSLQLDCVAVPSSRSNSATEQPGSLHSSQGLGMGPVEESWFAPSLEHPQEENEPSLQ
# Experiment: Human RIPK1 enzyme inhibitory effect (ADP-Glo Kinase Assay)
# Format: biochemical
# Settings: well without enzyme = 100% inhibition; for inhibition at 10 µM: read-out: human RIPK1 enzyme inhibitory effect at 10 μM (% inhibition), 10 μM test compound
# Procedure, shortened: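 ADP-Glo luminescence read-out of ADP formed over 120 min at room temperature after adding 0.6 mM ATP solution (stock concentration). Compound and Sf-9-expressed, GST-purified RIPK1 (1-375) were first incubated together for 20 min in HEPES pH 7.5 buffer with MgCl2, Tween-20 and DTT.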
Structure (SMILES),inhibition at 10 µM [%],"human RIPK1 enzyme inhibitory effect at 10 μM (% inhibition) (10 μM test compound, 10 µM) [%]"
"CN1C(=O)[C@@H](N2CCc3cn(Cc4ncco4)nc3C2=O)COc2ccccc21 [Example 35, (3S)-5-methyl-3-(2-(1,3-oxazol-2-ylmethyl)-7-oxo-2,4,5,7-tetrahydro-6H-pyrazolo[3,4-c]pyridin-6-yl)-2,3-dihydro-1,5-benzoxazepin-4(5H)-one]",96,–
"CN1C(=O)[C@@H](N2CCc3cn(Cc4c(Cl)cccc4C#N)nc3C2=O)COc2ccccc21 [Example 165, 3-chloro-2-((6-((3S)-5-methyl-4-oxo-2,3,4,5-tetrahydro-1,5-benzoxazepin-3-yl)-7-oxo-4,5,6,7-tetrahydro-2H-pyrazolo[3,4-c]pyridin-2-yl)methyl)benzonitrile]",99,–
"CN1C(=O)[C@@H](N2CCc3c(nn(Cc4ccccc4)c3C(=O)O)C2=O)COc2ccccc21 [Example 53, 2-benzyl-6-((3S)-5-methyl-4-oxo-2,3,4,5-tetrahydro-1,5-benzoxazepin-3-yl)-7-oxo-4,5,6,7-tetrahydro-2H-pyrazolo[3,4-c]pyridine-3-carboxylic acid]",67,–
"CC(c1ccccc1)n1cc2c(n1)C(=O)N([C@H]1COc3ccccc3N(C)C1=O)CC2 (stereo partly drawn) [Example 21, (3S)-5-methyl-3-(7-oxo-2-(1-phenylethyl)-2,4,5,7-tetrahydro-6H-pyrazolo[3,4-c]pyridin-6-yl)-2,3-dihydro-1,5-benzoxazepin-4(5H)-one]",100,–
"CCOC(=O)c1c2c(nn1Cc1ccccc1)C(=O)N([C@H]1COc3ccccc3N(C)C1=O)CC2 [Example 51, ethyl 2-benzyl-6-((3S)-5-methyl-4-oxo-2,3,4,5-tetrahydro-1,5-benzoxazepin-3-yl)-7-oxo-4,5,6,7-tetrahydro-2H-pyrazolo[3,4-c]pyridine-3-carboxylate]",99,–
"CN1C(=O)[C@@H](N2CCc3cn(CC4CCS(=O)(=O)C4)nc3C2=O)COc2ccccc21 (stereo partly drawn) [Example 163, (3S)-3-(2-((1,1-dioxidotetrahydrothiophen-3-yl)methyl)-7-oxo-2,4,5,7-tetrahydro-6H-pyrazolo[3,4-c]pyridin-6-yl)-5-methyl-2,3-dihydro-1,5-benzoxazepin-4(5H)-one]",53,–
"CN1C(=O)[C@@H](N2CCc3cn(Cc4ccc(Cl)cc4)nc3C2=O)CSc2ccccc21 [Example 150, (3R)-3-(2-(4-chlorobenzyl)-7-oxo-2,4,5,7-tetrahydro-6H-pyrazolo[3,4-c]pyridin-6-yl)-5-methyl-2,3-dihydro-1,5-benzothiazepin-4(5H)-one]",99,–
"CN1C(=O)C(N2CCc3c(nn(Cc4ccccc4)c3Cl)C2=O)CCc2cccnc21 (centres unmarked) [Example 93, 7-(2-benzyl-3-chloro-7-oxo-2,4,5,7-tetrahydro-6H-pyrazolo[3,4-c]pyridin-6-yl)-9-methyl-5,6,7,9-tetrahydro-8H-pyrido[2,3-b]azepin-8-one]",–,69
"CNC(=O)c1ccc2c(c1)OC[C@H](N1CCc3c(nn(Cc4ccccc4F)c3Cl)C1=O)C(=O)N2C [Example 47, (3S)-3-(3-chloro-2-(2-fluorobenzyl)-7-oxo-2,4,5,7-tetrahydro-6H-pyrazolo[3,4-c]pyridin-6-yl)-N,5-dimethyl-4-oxo-2,3,4,5-tetrahydro-1,5-benzoxazepine-8-carboxamide]",101,–
"CN1C(=O)[C@@H](N2CCCn3nc(Cc4ccccc4)nc3C2=O)COc2ccccc21 [Example 2, (3S)-3-(2-benzyl-9-oxo-6,7-dihydro-5H-[1,2,4]triazolo[1,5-a][1,4]diazepin-8(9H)-yl)-5-methyl-2,3-dihydro-1,5-benzoxazepin-4(5H)-one]",91,–
"CN1C(=O)[C@@H](N2CCc3c(nn(Cc4ccccc4)c3Cl)C2=O)COc2cc(-c3cn[nH]c3)ccc21 [Example 140, (3S)-3-(2-benzyl-3-chloro-7-oxo-2,4,5,7-tetrahydro-6H-pyrazolo[3,4-c]pyridin-6-yl)-5-methyl-8-(1H-pyrazol-4-yl)-2,3-dihydro-1,5-benzoxazepin-4(5H)-one]",102,–
"CN1C(=O)[C@@H](N2CCc3cn(Cc4ccccc4)nc3C2=O)CS(=O)(=O)c2ccccc21 [Example 69, (3R)-3-(2-benzyl-7-oxo-2,4,5,7-tetrahydro-6H-pyrazolo[3,4-c]pyridin-6-yl)-5-methyl-2,3-dihydro-1,5-benzthiazepin-4(5H)-one 1,1-dioxide]",99,–
"CNC(=O)c1ccc2c(c1)CCC(N1CCc3c(nn(Cc4ccccc4)c3Cl)C1=O)C(=O)N2C (centres unmarked) [Example 135, 3-(2-benzyl-3-chloro-7-oxo-2,4,5,7-tetrahydro-6H-pyrazolo[3,4-c]pyridin-6-yl)-N,1-dimethyl-2-oxo-2,3,4,5-tetrahydro-1H-1-benzazepine-7-carboxamide]",101,–
"Cc1c2c(nn1Cc1ccccc1)C(=O)N([C@H]1COc3ccccc3N(C)C1=O)CC2 [Example 11, (3S)-3-(2-benzyl-3-methyl-7-oxo-2,4,5,7-tetrahydro-6H-pyrazolo[3,4-c]pyridin-6-yl)-5-methyl-2,3-dihydro-1,5-benzoxazepin-4(5H)-one]",100,–
"CN1C(=O)[C@@H](N2CCc3c(nn(Cc4ccccc4)c3C3CC3)C2=O)COc2ccccc21 [Example 159, (3S)-3-(2-benzyl-3-cyclopropyl-7-oxo-2,4,5,7-tetrahydro-6H-pyrazolo[3,4-c]pyridin-6-yl)-5-methyl-2,3-dihydro-1,5-benzoxazepin-4(5H)-one]",100,–
"CN1C(=O)C(N2CCc3c(nn(Cc4ccccc4F)c3Cl)C2=O)CCc2c1cnn2C (centres unmarked) [Example 129, 6-(3-chloro-2-(2-fluorobenzyl)-7-oxo-2,4,5,7-tetrahydro-6H-pyrazolo[3,4-c]pyridin-6-yl)-1,4-dimethyl-4,6,7,8-tetrahydropyrazolo[4,3-b]azepin-5(1H)-one]",98,–
"O=C1Nc2ccccc2CCC1N1Cc2sc(Cc3ccccc3)nc2C1=O (centres unmarked) [Example 15, 3-(2-benzyl-4-oxo-4,6-dihydro-5H-pyrrolo[3,4-d][1,3]thiazol-5-yl)-1,3,4,5-tetrahydro-2H-1-benzazepin-2-one]",91,–
"CN1C(=O)C(N2CCc3c(nn(Cc4c(F)cccc4F)c3Cl)C2=O)CCc2c1cnn2C (centres unmarked) [Example 130, 6-(3-chloro-2-(2,6-difluorobenzyl)-7-oxo-2,4,5,7-tetrahydro-6H-pyrazolo[3,4-c]pyridin-6-yl)-1,4-dimethyl-4,6,7,8-tetrahydropyrazolo[4,3-b]azepin-5(1H)-one]",100,–
"CNC(=O)c1ccc2c(c1)OC[C@H](N1CCc3cn(Cc4c(F)cccc4F)nc3C1=O)C(=O)N2C [Example 116, (3S)-3-(2-(2,6-difluorobenzyl)-7-oxo-2,4,5,7-tetrahydro-6H-pyrazolo[3,4-c]pyridin-6-yl)-N,5-dimethyl-4-oxo-2,3,4,5-tetrahydro-1,5-benzoxazepine-8-carboxamide]",101,–
"CN1C(=O)[C@@H](N2CCc3cn(CC4CCC4)nc3C2=O)COc2ccccc21 [Example 31, (3S)-3-(2-(cyclobutylmethyl)-7-oxo-2,4,5,7-tetrahydro-6H-pyrazolo[3,4-c]pyridin-6-yl)-5-methyl-2,3-dihydro-1,5-benzoxazepin-4(5H)-one]",98,–

# Reference: US10787462B2, “Heterocyclic compound” (TAKEDA PHARMACEUTICAL COMPANY LIMITED, priority 2015, dated 2020)
